Here are results for two compounds from publication PMC8760490, “Discovery of novel furanylbenzamide inhibitors that target oncogenic tyrosine phosphatase SHP2 in leukemia cells” (The Journal of Biological Chemistry, 2021).

The target in this assay is T1, SHP2cat (Homo sapiens, UniProt Q06124).
T1 construct: the SHP2 catalytic domain (SHP2cat; residues 248–527); made in house
T1 sequence (Q06124 248-527): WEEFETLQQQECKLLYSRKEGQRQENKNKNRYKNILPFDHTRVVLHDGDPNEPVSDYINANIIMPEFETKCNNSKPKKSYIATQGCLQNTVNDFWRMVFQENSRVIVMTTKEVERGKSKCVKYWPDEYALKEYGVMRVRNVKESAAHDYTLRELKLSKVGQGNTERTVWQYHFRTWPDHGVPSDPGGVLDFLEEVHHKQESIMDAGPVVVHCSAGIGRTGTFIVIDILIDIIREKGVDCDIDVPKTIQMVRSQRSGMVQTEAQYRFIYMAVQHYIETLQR
Kind of assay: OMFP fluorescence phosphatase inhibition assay, SHP2cat. Format: biochemical. The following applies: substrate OMFP at Km (50 μM); read-out: IC50 against SHP2cat with OMFP. The text has this: We confirmed specific and dose-dependent binding of inhibitors to SHP2 by PTS, which monitors the thermal stability of a target protein in vitro ([40]). […] In addition, we confirmed the inhibitory activity of several furanylbenzamide inhibitors, including the top two compounds SBI-2130 and SBI-4668, in SHP2cat inhibition assays using the alternative substrate 3-O-methylfluorescein phosphate (OMFP), which features a peak fluorescence emission that is red-shifted by ∼75 nm compared with DiFMUP. The Km value of OMFP for SHP2cat was determined to be 50 μM. An OMFP fluorescence intensity–based assay was used to perform inhibitor dose–response experiments and determine IC50 values.
SHP2 inhibitors were tested at RT in a 384-well plate format standard phosphatase fluorescence intensity assay using DiFMUP (Invitrogen/Thermo Fisher Scientific) as a substrate and a total reaction volume of 25 μl. […] Fluorescence intensity was measured in kinetic mode (every minute for 7 or 10 min) using a Tecan Spark Multimode Microplate Reader (Tecan) with an excitation wavelength of 360 nm and an emission wavelength of 460 nm. The initial rates were determined from the linear progression curves of the PTP reaction. […] IC50 values were calculated from the corrected initial rates by nonlinear regression using the program GraphPad Prism, version 8 (GraphPad Software, Inc) software. […]

Broadly, the IC50 is the point on the concentration scale where inhibition reaches its midpoint. On to `Nc1ccc(NC(=O)c2cc(-c3ccc(/C=C4\Sc5ccccc5C4=O)o3)ccc2O)cc1` [SBI-2130, (Z)-N-(4-Aminophenyl)-2-hydroxy-5-(5-((3-oxobenzo[b]thiophen-2(3H)-ylidene)methyl)furan-2-yl)benzamide], for which the IC50 was 0.44 µM.

`O=C(Nc1ccccc1)c1cc(-c2ccc(/C=C3\Sc4ccccc4C3=O)o2)ccc1O` [SBI-4668, (Z)-2-Hydroxy-5-(5-((3-oxobenzo[b]thiophen-2(3H)-ylidene)methyl)furan-2-yl)-N-phenylbenzamide]: the IC50 turned out to be 1.2 µM.
